{"source": "patent US8354387B2", "about": "“Methods and compositions for delivering siRNA into mammalian cells” (Centre National de la Recherche Scientifique, priority 2004, dated 2013)", "system": "GAPDH", "experiment": "GAPDH protein levels by Western blotting after siRNA transfection", "assay_type": "cell-based, human", "conditions": "for reduction of GAPDH protein levels: Hs68, 30 hrs post transfection", "procedure": "FIG. 4: MPG-mediated delivery of siRNA induces a robust biological response. A/ MPG mediated delivery of siRNA targeting luciferase gene. MPG/siRNA or MPG^ΔNLS/DNA complexes were formed in DMEM at a charge ratio 10:1 and incubated for 30 min at 37° C., then overlaid onto Cos-7 or HeLa cells grown to 60% confluence and previously transfected with the pRL-SV40 plasmid (Promega) encoding the reporter gene luciferase under control of an SV40 promoter. After 30 min incubation at 37° C., 1 ml of fresh DMEM supplemented with 10% fetal calf serum was added onto the cells. Luciferase activity was measured 48 hrs after transfection. Transfections were also performed with Oligofectamine™ as a standard. Control experiments were performed with either naked siRNA or using a mismatch siRNA (dashed bars). B/ MPG-mediated delivery of siRNA targeting GAPDH gene: Western blot analysis. Different concentrations of siRNA (25, 50, 100 nM) were transfected with either MPG or MPG^ΔNLS and the levels of GAPDH protein were analyzed by Western blotting 30 hrs post transfection. Actin was used as a control to normalize protein loading. C/ MPG-mediated delivery of siRNA targeting GAPDH gene: Northern blot analysis. The kinetics of siRNA (50 nM)-induced degradation of GAPDH mRNA following transfection with either MPG or MPG^ΔNLS were analyzed by Northern blotting. Actin was used as a control to normalize mRNA levels in each sample. […]\nTo further understand the impact of the NLS in MPG, we examined the biological response of an siRNA targeting the GAPDH gene following transfection into human fibroblasts (Hs68). […] Different concentrations of siRNA (25, 50, 100 nM) were transfected with either MPG or MPG^ΔNLS and the levels of GAPDH protein were analyzed by Western blotting 30 hrs post transfection. […] The kinetics of siRNA-induced degradation of GAPDH mRNA following transfection with either MPG or MPG^ΔNLS were analyzed by Northern blotting. […]"}
{"sequence": "GALFLGFLGAAGSTMGAWSQPKKKRKV (carrier peptide) [MPG, bipartite amphipathic peptide derived from fusion peptide domain of HIV-1 gp41 and NLS of SV40 large T antigen]", "values": [{"measurement": "reduction of GAPDH protein levels", "setting": "100 nM siRNA", "result": 60, "unit": "%"}]}
{"sequence": "GALFLGFLGAAGSTMGAWSQPKSKRKV (carrier peptide) [MPG^ΔNLS, MPG variant with single mutation of the second lysine residue in the NLS motif to serine]", "values": [{"measurement": "reduction of GAPDH protein levels", "setting": "25 nM siRNA", "result": 80, "unit": "%"}, {"measurement": "efficiency relative to wild-type MPG", "setting": "GAPDH siRNA, Hs68", "result": "at least 2 fold"}]}
